Measured values taken from US9738623B2, “Curcumin analogs” (The General Hospital Corporation, priority 2012, dated 2017).

What was measured:
FAM-Aβ42 = target: T1, FAM-Aβ42 (Homo sapiens, UniProt P05067); experiment: SDS-PAGE of copper-induced crosslinking of FAM-Aβ42; type: biochemical; conditions: for intensity of monomeric Aβ bands relative to non-treated group: 4 hours incubation with copper sulfate and vitamin C
T1 construct: a Aβ42 labeled with fluorescent dye (FAM) (FAM-Aβ42); purchased American Peptide Company
Procedure: (§1) Samples were separated on 4-20% gradient Tris-glycine mini gels (Invitrogen). For FAM-Aβ42 gels, the images were acquired on IVIS®Spectrum (Caliper, Perkin Elmer) with excitation=465 nm, and emission=520 nm. For native Aβ42 gels, the gel was transferred to a nitrocellulose membrane in a cooled transferring buffer and the membrane was blocked at room temperature for 2 hours. After blocking, the membrane was incubated in a solution of 6E10 anti-Aβ primary antibody (1:2000 dilution, Covance, Dedham, Mass.) at 4° C. overnight. After washing with TBS buffer, the membrane was incubated with the secondary antibody for 2 hours at room temperature. Western Breeze Chemiluminescent kit (Invitrogen) was used to visualize the bands. The images were acquired using IVIS®Spectrum (Caliper, Perkin Elmer) using bioluminescence imaging setting. SeeBlue®plus2 (Invitrogen)(4-250KD) was used as a molecular weight marker.
(§2) All the samples used for SDS-PAGE gel and Western blot were prepared using the same procedure as described below. A 5 μL HFIP (hexafluoroisopropanol) solution (25 μM) of native Aβ42 or FAM-Aβ42 was added to a 1.5 mL eppendorf tube. After evaporating the organic solvent under vacuum, a 5 μL at DMSO or DMSO solution of CRANAD-17 (100 μM) was added to the tube, followed by the addition of 15 μL of Vitamin C solution in PBS (33.3 μM) and 5 μL of copper sulfate solution in PBS (12.5 μM). The resulting mixture was incubated at 37° C. for 4 hours, and was then subjected to gel electrophoresis. For dose dependency study, 5 μL of DMSO solution of different CRANAD-17 concentrations (25, 125, 250 μM) was added to obtain CRANAD-17/Aβ42 ratio equals 1:1, 5:1, and 10:1.

Aβ42 [1] = target: T2, Aβ42 (Homo sapiens, UniProt P05067); experiment: Western blot of copper-induced crosslinking of native Aβ42; type: biochemical; conditions: for attenuation of copper-induced crosslinking of native Aβ42: 4 hours incubation; for high molecular weight species on gel: copper treated
T2 construct: Synthetic amyloid-β peptide (1-40/42) was purchased from rPeptide; purchased rPeptide (Bogart, Ga.)
Procedure: as §1, §2
To this end, human Aβ42 was incubated with curcumin, CRANAD-3 and CRANAD-17 under the same conditions as above.

human Aβ40 = target: T3, human Aβ40 (Homo sapiens, UniProt P05067); experiment: Fluorescence spectra recording with Aβ40; type: binding; conditions: 500 nM compound, 250 nM Aβ
T3 construct: Synthetic amyloid-β peptide (1-40/42) was purchased from rPeptide; purchased rPeptide (Bogart, Ga.)
Procedure: (§3) The procedure described below was used for all experiments. To test the interactions of CRANAD-17 with Aβ species including Aβ42 monomers, Aβ40 monomers and [H13R]Aβ40 monomers, we utilize the following protocol. Step 1: 1.0 mL of PBS buffer was added to a quartz curvet as a blank control and its fluorescence was recorded with the same parameters as for CRANAD-17; Step 2: fluorescence of a CRANAD-17 solution (1 mL, 500 nM) was recorded with excitation at 480 nm and emission from 500 nm to 900 nm; Step 3: to the above CRANAD-17 solution, 10 μL of Aβ species (25 μM) was added to make the final Aβ species concentration of 250 nM, and the fluorescence spectrum from this solution was recorded. The final spectra from steps 2 and 3 were corrected using the blank control from step 1.

[H13R]Aβ40 = target: T4, [H13R]Aβ40 (Homo sapiens, UniProt P05067, H684R); experiment: Fluorescence spectra recording with [H13R]Aβ40; type: binding
T4 construct: [H13R]Aβ40 monomers; purchased American Peptide Company
Procedure: as §3
Conceivably, it is possible that the pyridyl ring on the other end of CRANAD-3 has a specific interaction with H13 and H14 of Aβ, which have aromatic imidazolium rings and are at the equal distance from K16 as VFF. To this end, the fluorescence intensities of CRANAD-3 with Aβ and H13R substituted Aβ ([H13R]Aβ), in which H13 is replaced by arginine (R) was compared.

Aβ42 [2] = target: T2, Aβ42; experiment: TEM measurement of Aβ42 aggregation; type: biochemical; conditions: 1.0 μM compound, 250 nM Aβ42, 37° C., 24 hours
Procedure: A 250 nM of Aβ42 in PBS solution was placed was at 37° C. for 24 hours. Next, 5 μL of this solution was dropped onto a Formvar coated TEM grid, followed by the addition of 2 μL of PTA contrast solution. After one minute, the liquid on the grid was carefully dried with a corner of a filter paper, and the resulting grid was further dried in the air for 2-5 minute. The TEM images were taken with JEOL 1011 electron microscope. Similar procedure was used for the incubated solution of CRANAD-l7 (1.0 μM) and Aβ42 (250 nM).

Aβ42 [3] = target: T2, Aβ42; experiment: Thioflavin T test of Aβ42 aggregation; type: biochemical; conditions: 10 μM compound, 37° C., 24 hours
Procedure: A 2.5 μM of Aβ42 solution in PBS was placed at 37° C. for 24 hours., and 10 μL of this solution was added to 1.0 ml PBS solution. The resulting solution was and then subjected to fluorescence spectrum recording with excitation=440 nm, and emission=470-800 nm (baseline recording). To this solution, 10 μL of thioflavin T (2.5 μM in PBS) was added and the spectrum was recorded. The quantification was conducted at λem=500 nm for Thioflavin T reading by subtracting the baseline reading. For CRANAD-17 (10 μM) incubation, the quantification was conducted by subtracting the readings at baseline and CRANAD-17 at λem=500 nm.

APP/PS1 mice = experiment: In vivo six-month treatment of APP/PS1 mice (NIR imaging, ELISA, plaque counting); conditions: 4 mg/kg i.p. twice a week, 6-month treatment
Procedure: Transgenic APP-PS1 mice and age-matched wild type mice were purchased from Jackson Laboratory. In vivo NIR imaging was recorded using the IVIS° Spectrum.
Ten APP/PS 1 mice (4-month) were divided into 2 groups (n=5/group), and one group was i.p. injected with 100 microliter of CRANAD-17 (4 mg/kg, formulated withl0% cremophor, 10% DMSO and 80% PBS) twice a week. After 6-month treatment, the two groups were subjected to NIR imaging with CRANAD-3 (ex=605, em=680 nm), and then were sacrificed. The brain of each mouse was taken, and dissected in two halves. One half brain was subjected to extraction and then to ELISA analysis. The other half brain was dissected into 25 micron slices, and then the slices were stained with Thioflavin S. Eight slices from hippocampus area of each mouse were subjected to amyloid beta plaque counting by ImageJ.

Compound	attenuation of copper-induced crosslinking (FAM-Aβ42; FAM-Aβ42/compound 1:1, 1:5, 1:10)	intensity of monomeric Aβ bands relative to non-treated group (FAM-Aβ42)	attenuation of copper-induced crosslinking of native Aβ42 (Aβ42 [1]; Western blot)	high molecular weight species on gel (Aβ42 [1])	fluorescence property changes upon mixing with Aβ (human Aβ40)	blue-shift with [H13R]Aβ ([H13R]Aβ40)	fluorescence intensity with [H13R]Aβ compared to native Aβ ([H13R]Aβ40)	attenuation effect compared to curcumin and CRANAD-3 (Aβ42 [1]; Western blot)	visible fibrils by TEM compared to control (Aβ42 treated with copper only) (Aβ42 [2])	Thioflavin T fluorescence signal (Aβ42 [3])	ELISA analysis of brain extraction, reduction (APP/PS1 mice)	lower NIR signals than non-treated group (imaging with CRANAD-3) (APP/PS1 mice)	plaque counting, reduction (APP/PS1 mice; hippocampus slices, Thioflavin S)
c1ccc(-n2ccnc2)cc1 [4-(1H-imidazol-1-yl)benzene]	relatively small compared to CRANAD-17	–	–	–	–	–	–	–	–	–	–	–	–
COc1cc(/C=C/C(=O)CC(=O)/C=C/c2ccc(O)c(OC)c2)ccc1O [curcumin]	–	1.07 fold	could attenuate crosslinking	no significant amount of high molecular weight species	–	–	–	–	–	–	–	–	–
CRANAD-17	–	1.92 fold	could attenuate crosslinking	a certain amount of high molecular weight oligomeric species	intensity increase and blue-shift	no significant blue-shift	significantly lower fluorescence intensity	significantly higher attenuation effect	less visible fibrils	lower fluorescence signal	36%	25%	78%
